Values of other authors in patent US8586760B2, “Aminothiazole modulators of beta-3-adrenoreceptor” (Auspex Pharmaceuticals, Inc., priority 2009, dated 2013).

Assays:
CYP2D6 = CYP2D6 (Homo sapiens, UniProt P10635)
CYP3A4 = CYP3A4 (Homo sapiens, UniProt P08684)
[1] = poor metabolizers compared to extensive metabolizers

Sequence of CYP2D6 (P10635 whole entry): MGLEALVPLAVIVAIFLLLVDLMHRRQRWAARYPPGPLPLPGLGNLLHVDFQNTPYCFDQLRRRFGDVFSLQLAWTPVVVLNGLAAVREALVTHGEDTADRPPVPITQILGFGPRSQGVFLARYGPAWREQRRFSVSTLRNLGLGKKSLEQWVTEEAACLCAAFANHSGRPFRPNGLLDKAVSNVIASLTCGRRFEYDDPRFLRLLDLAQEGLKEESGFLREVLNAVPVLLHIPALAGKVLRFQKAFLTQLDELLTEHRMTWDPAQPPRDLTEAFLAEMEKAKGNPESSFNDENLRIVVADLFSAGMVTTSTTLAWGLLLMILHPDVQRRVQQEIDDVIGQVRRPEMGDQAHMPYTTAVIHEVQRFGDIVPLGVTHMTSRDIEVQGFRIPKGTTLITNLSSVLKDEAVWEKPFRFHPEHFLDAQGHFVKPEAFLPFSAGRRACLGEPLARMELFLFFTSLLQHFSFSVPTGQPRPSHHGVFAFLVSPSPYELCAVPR
Sequence of CYP3A4 (P08684 whole entry): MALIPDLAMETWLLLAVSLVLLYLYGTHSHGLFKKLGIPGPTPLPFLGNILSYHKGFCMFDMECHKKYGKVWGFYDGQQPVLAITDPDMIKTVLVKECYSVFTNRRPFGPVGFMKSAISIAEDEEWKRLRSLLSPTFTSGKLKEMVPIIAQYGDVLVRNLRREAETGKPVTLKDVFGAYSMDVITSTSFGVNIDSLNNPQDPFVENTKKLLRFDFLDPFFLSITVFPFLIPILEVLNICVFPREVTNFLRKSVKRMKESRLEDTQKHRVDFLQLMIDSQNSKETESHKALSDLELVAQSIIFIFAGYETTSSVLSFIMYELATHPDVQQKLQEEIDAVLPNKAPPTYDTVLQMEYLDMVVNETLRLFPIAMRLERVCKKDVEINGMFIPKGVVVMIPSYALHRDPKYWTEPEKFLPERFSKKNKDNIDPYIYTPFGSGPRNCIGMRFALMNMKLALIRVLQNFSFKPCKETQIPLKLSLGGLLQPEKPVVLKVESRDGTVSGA

With `Nc1nc(CC(=O)Nc2ccc(CCNC[C@H](O)c3ccccc3)cc2)cs1` [Mirabegron, 2-amino-N-[4-[2-[[(2R)-2-hydroxy-2-phenylethyl]amino]ethyl]phenyl]-4-thiazoleacetamide] as the compound, how does the “metabolism by CYP2D6” value (CYP2D6) read?
Its value is “oxidative cleavage”.

And the Intersubject variability (poor metabolizers)?
The Intersubject variability was “generally higher”.

And the “Mean Cmax” value [1]?
The value was “slightly higher”.

And the “mean AUC” value [1]?
The value was “slightly higher”.

And the t1/2 [1]?
Its t1/2 is “longer”.

What about the “metabolism by CYP3A4” value (CYP3A4) of the same compound?
The value was “oxidative cleavage”.
